Test results: PMC7069095, “A cell-permeable peptide-based PROTAC against the oncoprotein CREPT proficiently inhibits pancreatic cancer” (Theranostics, 2020)

Experiments:
[1] = molecular target: T1, endogenous CREPT protein in Panc-1 cells (Homo sapiens, UniProt Q9NQG5); assay: Immunofluorescence staining of CREPT in cells treated with FITC-PRTC; format: cell-based; settings: immunofluorescence with anti-CREPT antibody
T1 construct: endogenous protein level of CREPT in Panc-1, AsPc-1 and MIA-PaCa-2 cells; endogenous in cells; host or cells: Panc-1, AsPc-1, MIA PaCa-2
T1 sequence (Q9NQG5 1-326): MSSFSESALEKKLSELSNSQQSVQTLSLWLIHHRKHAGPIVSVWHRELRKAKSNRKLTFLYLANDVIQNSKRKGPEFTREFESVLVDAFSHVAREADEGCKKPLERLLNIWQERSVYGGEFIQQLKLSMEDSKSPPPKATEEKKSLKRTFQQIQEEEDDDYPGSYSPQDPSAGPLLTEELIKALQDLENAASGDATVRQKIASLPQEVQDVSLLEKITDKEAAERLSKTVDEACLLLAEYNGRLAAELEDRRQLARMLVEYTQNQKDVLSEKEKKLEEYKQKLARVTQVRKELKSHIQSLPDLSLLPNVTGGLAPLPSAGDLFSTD
Protocol: After adherence, cells were treated with 10 μM PRTC for 24 h. The cells were then gently washed three times with warm PBS, fixed with 4% paraform and incubated with 0.25% Triton X-100 in PBST. Next, the cells were blocked in 5% BSA for 1 h at room temperature and incubated with an antibody against CREPT at 4 °C overnight. Cells were washed 3 times with PBST (0.1% Tween-20) and incubated with TRITC-labeled goat anti-mouse IgG antibody (Jackson ImmunoReseach) at a dilution rate of 1:100 at room temperature for 1 h. Coverslips were imaged by a confocal laser scanning microscope (OLYMPUS).
(§1) To address whether PRTC could induce CREPT degradation, we examined the endogenous protein level of CREPT in Panc-1, AsPc-1 and MIA-PaCa-2 cells in the presence of different dosages of PRTC. […] Consistently, treatment with PRTC led to decreases in CREPT protein at different times (Figure 5B, S3A). […] To further visualize the degradation process, we stained the endogenous CREPT protein with an antibody against CREPT in the cells treated with FITC-labeled PRTC.

[2] = tested on: Panc-1 cells; assay: Confocal fluorescence imaging of FITC labeled peptides in cells; format: cell-based; settings: confocal microscope, Panc-1 cells
Protocol: To examine whether PRTC could permeate into pancreatic cancer cells, we synthesized fluorescein isothiocyanate (FITC) labeled PRTC, PRTC-m, PRTC-v, PRTC-r (PRTC without RRRRK) as well as TAT (a widely used cell penetrating peptide, as a positive control).
Figure 3 Identification of the permeability of PRTC in Panc-1 cells. (A) Entry of FITC- labeled peptides into Panc-1 cells tested by flow cytometry. FITC-TAT is the positive control. Measurements were performed in triplicate. (B) Quantification of cellular uptake of Panc-1 cells treated with different concentrations of FITC-PRTC. (C) Confocal microscope images of Panc-1 cells treated with 10 μM FITC labeled peptides. Scale bars, 10 μm. (D) Confocal microscope images of Panc-1 cells treated with different dosages of FITC-PRTC. Scale bars, 10 μm.

[3] = tested on: MIA PaCa-2 cells; assay: Cell proliferation assay (CCK-8); format: cell-based; settings: 10 μM
Protocol: (§2) Cells were seeded into 96-well plates (1000 cells per well) and cultured for the indicated times. Cell viability was evaluated using a CCK-8 kit (Solarbio, Beijing, China). The value of OD450 was calculated by spectrophotometer and presented as the mean ± standard deviation (SD) from three individual experiments. […]
PaCa-2cells treatedwith deionizedH 2O(Ctrl),10μMPRTC, PRTC-mandPRTC-v. […]
(§3) (1 picture or pasted object on this page, not shown here)

[4] = molecular target: T2, ubiquitinated CREPT in Panc-1 cells (Homo sapiens, UniProt Q9NQG5); assay: Endogenous IP of CREPT with ubiquitin (Co-IP); format: cell-based; settings: 10 μM peptide for 24 h, IP: CREPT, IB: anti-ubiquitin
T2 construct: endogenous protein level of CREPT in Panc-1, AsPc-1 and MIA-PaCa-2 cells; endogenous in cells; host or cells: Panc-1, AsPc-1, MIA PaCa-2
T2 sequence (Q9NQG5 1-326): T1 sequence (Q9NQG5 1-326)
Protocol: (§4) For exogenous immunoprecipitation assays, HEK293T cells were plated in 60 mm dishes and then transfected with the indicated plasmids. After 24 h, cells were harvested using RIPA buffer (50 mM Tris-HCl pH 8.0, 2 mM EDTA pH 8.0, 150 mM NaCl, 1% NP-40, 0.5% sodium deoxycholate, 0.1% SDS) with mixed protease inhibitors. Cell lysates were incubated with 2 μg of the indicated antibodies and 30 μL of protein A/G-Sepharose beads at 4 °C overnight. Beads were eluted five times with lysis buffer (50 mM Tris-HCl pH 7.6, 1 mM EDTA pH 8.0, 165 mM NaCl, 0.5% NP-40), and thereafter, a western blot assay was performed to analyze the association by using the indicated antibodies. Western blot was performed as previously reported. Anti-β-actin and anti-Flag antibodies were purchased from Sigma. Anti-Myc antibody was purchased from Santa Cruz Biotechnology. Antibody against CREPT was produced in the laboratory.
In addition, a Co-IP experiment was performed in Panc-1 cells treated with 10 μM PRTC, PRTC-m or PRTC-v for 24 h. […] In the absence of MG132, the level of ubiquitinated CREPT was further increased by PRTC (Figure 6C, compare lane 1 and lane 2).
Figure 6 The degradation of CREPT by PRTC is dependent on its VHL ligand. (A) Immunoblot of CREPT following 24 h incubation with different dosages of PRTC or PRTC-v in Panc-1 cells. (B) Immunoblot of CREPT exposed to 10 μM PRTC or PRTC-v for different time points in Panc-1 cells. (C) Endogenous IP experiment of CREPT with ubiquitin treated with 10 μM PTRC, PTRC-m or PTRC-v in Panc-1 cells. IP: CREPT, IB: Anti-ubiquitin.

[5] = tested on: AsPc-1 cells; assay: Cell proliferation assay (CCK-8); format: cell-based; settings: 10 μM
Protocol: as §2
CellproliferationassayofAsPc-1cellstreatedwith deionizedwater(Ctrl), 10μMPRTC,10μM […]
as §3

[6] = molecular target: T1, endogenous CREPT protein in Panc-1 cells; assay: Western blot of endogenous CREPT (degradation); format: cell-based; settings: different dosages (24 h) or time points (10 μM)
Protocol: as §4, §1
Figure 5 PRTC induces the ubiquitination and proteasome- dependent degradation of the endogenous CREPT protein. (A) Immunoblot of CREPT following 24 h incubation with different dosages of PRTC or PRTC-m in Panc-1 cells. (B) Immunoblot of CREPT exposed to 10 μM PRTC or PRTC-m for different times in Panc-1 cells. (C) Western blot analysis of CREPT following 24 h incubation with 10 μM PTRC in Panc-1 cells. MG132 is an inhibitor of proteasome activity. (D) Immunofluorescence visualization of Panc-1 cells after treatment with PRTC for 24 h. Cells were stained with anti-CREPT antibody. Scale bars, 20 μm.

[7] = Circular dichroism (CD) spectroscopy; format: physicochemical; settings: 0.1 mg/mL in deionized water, room temperature
Protocol: All peptides were dissolved in the deionized water at a final concentration of 0.1 mg/mL. The CD spectra were measured by using a 1 nm bandwidth with a 1 nm step resolution from 190 to 260 nm at room temperature (Jasco spectropolarimeter, Japan). Final spectra were obtained from the average of three parallel scans after subtracting a spectrum of deionized water recorded under the same conditions. Each sample was scanned thrice and the averaged spectrum was smoothed. The helicity were calculated by CDNN 2.1 [59], [60].

Row | Substance | endogenous CREPT protein at 24 h [1] | localization of FITC labeled peptides in the cells ([2]; 10 μM FITC labeled peptides) | subcellular localization ([2]; increasing concentration and incubation time, repeated in AsPc-1 and MIA PaCa-2 cells) | cell proliferation [3] | ubiquitinated CREPT proteins [4] | cell proliferation [5] | degradation of endogenous CREPT protein [6] | secondary structure by CD spectrum [7] | Helicity ([7]; 190 to 260 nm, average of three scans, calculated by CDNN 2.1)
1 | FITC-AHX-IYP (OH) AL-AHX-KDVLSEKEKKLEEYKQKLARV-RRRRK [FITC-PRTC, fluorescein isothiocyanate (FITC) labeled PRTC] | almost completely depleted | strong localization | localized into the nucleus | – | – | – | – | – | –
2 | KDVLSEKEKKLEEYKQKLARV-RRRRK [PRTC-v, PRTC without the VHL ligand] | – | – | – | failed | unable to mediate the accumulation | failed | failed to degrade | α-helix structure | 42.2%
